Laboratory results as given in ChEMBL document CHEMBL1141418 (J Med Chem, 2007).
Positions of bridges follow the written chain, without caps; N, C: chain ends. Non-standard residues stand in square brackets, D forms with d. Residues, ends and D or L forms follow the SMILES beside them. Orn = NCCC[C@H](N)C(=O)O; Dab = NCC[C@H](N)C(=O)O; Dap = NC[C@H](N)C(=O)O; Mpa = O=C(O)CCS

What was measured:
Rattus norvegicus [1] = organism: Rattus norvegicus; test: Vasopressor activity in rat; format: functional
[2] = target: T1, Oxytocin receptor (Homo sapiens) (UniProt P30559); test: Activity at OT receptor assessed as oxytocic activity in absence of magnesium; format: functional; conditions: filed as agonist
T1 sequence (whole entry): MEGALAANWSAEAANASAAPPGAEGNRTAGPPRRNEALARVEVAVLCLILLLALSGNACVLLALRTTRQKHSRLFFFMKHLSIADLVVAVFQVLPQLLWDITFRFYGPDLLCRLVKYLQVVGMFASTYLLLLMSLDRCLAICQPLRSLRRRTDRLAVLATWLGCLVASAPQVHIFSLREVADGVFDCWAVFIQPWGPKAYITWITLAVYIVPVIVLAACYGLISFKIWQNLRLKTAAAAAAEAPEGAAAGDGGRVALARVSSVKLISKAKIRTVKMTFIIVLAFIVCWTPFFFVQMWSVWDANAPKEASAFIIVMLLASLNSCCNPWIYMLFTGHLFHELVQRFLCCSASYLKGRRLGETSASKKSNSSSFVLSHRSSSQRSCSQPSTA

Rattus norvegicus [3] = organism: Rattus norvegicus; test: Antidiuretic activity in rat; format: functional, Urine
Vasopressin V2 receptor = Vasopressin V2 receptor (Rattus norvegicus, UniProt Q00788); test: Displacement of [3H]AVP from vasopressin V2 receptor in rat kidney membranes; format: cell membranes, Membrane
Chain of Vasopressin V2 receptor (Q00788 whole entry): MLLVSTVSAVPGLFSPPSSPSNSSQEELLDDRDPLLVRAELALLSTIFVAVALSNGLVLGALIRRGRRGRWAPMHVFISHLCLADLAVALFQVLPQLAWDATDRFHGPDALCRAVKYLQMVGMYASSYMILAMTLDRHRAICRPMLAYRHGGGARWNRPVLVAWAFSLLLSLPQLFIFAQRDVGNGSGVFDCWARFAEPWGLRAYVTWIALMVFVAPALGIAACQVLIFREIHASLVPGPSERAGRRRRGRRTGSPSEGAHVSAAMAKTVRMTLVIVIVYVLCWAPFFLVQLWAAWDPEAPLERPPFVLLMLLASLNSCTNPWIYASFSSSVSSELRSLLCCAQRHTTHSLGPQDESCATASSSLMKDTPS

Vasopressin V1a receptor = Vasopressin V1a receptor (Rattus norvegicus, UniProt P30560); test: Displacement of [3H]AVP from vasopressin V1a receptor in rat liver membrane; format: cell membranes
Chain of Vasopressin V1a receptor (P30560 whole entry): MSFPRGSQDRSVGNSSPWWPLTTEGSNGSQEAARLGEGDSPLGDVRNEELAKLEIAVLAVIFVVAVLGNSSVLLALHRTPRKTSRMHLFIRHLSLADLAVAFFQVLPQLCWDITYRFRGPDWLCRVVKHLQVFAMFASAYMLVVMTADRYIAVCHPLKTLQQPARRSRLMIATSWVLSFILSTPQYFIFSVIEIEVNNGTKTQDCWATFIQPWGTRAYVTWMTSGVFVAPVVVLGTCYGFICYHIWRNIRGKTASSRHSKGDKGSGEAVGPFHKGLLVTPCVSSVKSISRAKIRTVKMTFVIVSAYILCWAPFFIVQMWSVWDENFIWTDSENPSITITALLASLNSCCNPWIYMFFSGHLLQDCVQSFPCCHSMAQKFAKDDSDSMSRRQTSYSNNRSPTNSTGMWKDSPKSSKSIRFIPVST

Oxytocin receptor = target: T2, Oxytocin receptor (Rattus norvegicus, UniProt P70536); test: Displacement of [3H]AVP from rat OT receptor expressed in CHO cells; format: cell-based
T2 sequence (P70536 whole entry): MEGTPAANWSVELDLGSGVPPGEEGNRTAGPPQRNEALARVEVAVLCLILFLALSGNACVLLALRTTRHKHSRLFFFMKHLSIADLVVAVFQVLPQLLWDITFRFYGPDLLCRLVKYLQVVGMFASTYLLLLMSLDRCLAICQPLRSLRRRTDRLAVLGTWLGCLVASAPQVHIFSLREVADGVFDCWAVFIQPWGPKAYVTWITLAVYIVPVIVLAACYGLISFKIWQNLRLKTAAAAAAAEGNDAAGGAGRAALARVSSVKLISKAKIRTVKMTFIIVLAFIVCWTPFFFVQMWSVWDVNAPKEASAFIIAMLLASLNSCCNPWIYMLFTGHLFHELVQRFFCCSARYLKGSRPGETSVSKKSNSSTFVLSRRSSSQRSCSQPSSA

Structure (SMILES)	Activity [2] [U/mg]	Ki (Vasopressin V2 receptor)	Ki (Vasopressin V1a receptor)	Ki (Oxytocin receptor)	Activity (Rattus norvegicus [1]) [U/mg]	Activity (Rattus norvegicus [3]) [U/mg]	Activity (Rattus norvegicus [1]; filed as antagonist)
N=C(N)NCCC[C@H](NC(=O)[C@@H]1CCCN1C(=O)[C@@H]1CSSCCC(=O)N[C@H](Cc2cccnc2)C(=O)N[C@@H](Cc2ccccc2)C(=O)N[C@@H](CCC(N)=O)C(=O)N[C@@H](CC(N)=O)C(=O)N1)C(=O)NCC(N)=O		69 nM (antagonist)	450 nM (antagonist)			1	Antagonist
CC(C)C[C@@H]1NC(=O)[C@H](Cc2ccccc2)NC(=O)[C@H](Cc2ccc(O)cc2)NC(=O)CCSSC[C@@H](C(=O)N2CCC[C@H]2C(=O)N[C@@H](CCCN=C(N)N)C(=O)NCC(N)=O)NC(=O)[C@H](CC(N)=O)NC1=O ([Mpa]YFLNCPRG-NH2; disulfide 1-6)		3.1 nM (antagonist)	1250 nM (antagonist)				
CC(C)C[C@@H]1NC(=O)[C@H](Cc2ccccc2)NC(=O)[C@H](Cc2ccc(O)cc2)NC(=O)CCSSC[C@@H](C(=O)N2CCC[C@H]2C(=O)N[C@@H](CCN)C(=O)NCC(N)=O)NC(=O)[C@H](CC(N)=O)NC1=O ([Mpa]YFLNCP[Dab]G-NH2; disulfide 1-6)	0.27	210 nM (antagonist)	1000 nM (antagonist)	41 nM (antagonist)	3.5	5.7	
CC(C)C[C@@H]1NC(=O)[C@H](Cc2ccccc2)NC(=O)[C@H](Cc2ccc(O)cc2)NC(=O)CCSSC[C@@H](C(=O)N2CCC[C@H]2C(=O)N[C@@H](CCCN)C(=O)NCC(N)=O)NC(=O)[C@H](CC(N)=O)NC1=O ([Mpa]YFLNCP[Orn]G-NH2; disulfide 1-6)		425 nM (antagonist)	1400 nM (antagonist)		3.1	5.7	
NCC[C@H](NC(=O)[C@@H]1CCCN1C(=O)[C@@H]1CSSCCC(=O)N[C@@H](Cc2ccc(O)cc2)C(=O)N[C@@H](Cc2ccccc2)C(=O)N[C@@H](CCC(N)=O)C(=O)N[C@@H](CC(N)=O)C(=O)N1)C(=O)NCC(N)=O ([Mpa]YFQNCP[Dab]G-NH2; disulfide 1-6)	25				385	463	
NC[C@H](NC(=O)[C@@H]1CCCN1C(=O)[C@@H]1CSSCCC(=O)N[C@@H](Cc2ccc(O)cc2)C(=O)N[C@@H](Cc2ccccc2)C(=O)N[C@@H](CCC(N)=O)C(=O)N[C@@H](CC(N)=O)C(=O)N1)C(=O)NCC(N)=O ([Mpa]YFQNCP[Dap]G-NH2; disulfide 1-6)	0.9				8.7	165	
NC(=O)CNC(=O)[C@H](CCCN=C(N)N)NC(=O)[C@@H]1CCCN1C(=O)[C@@H]1CSSCCC(=O)N[C@@H](Cc2ccc(O)cc2)C(=O)N[C@@H](Cc2ccccc2)C(=O)N[C@@H](CCCN=C(N)N)C(=O)N[C@@H](CC(N)=O)C(=O)N1 ([Mpa]YFRNCPRG-NH2; disulfide 1-6)					159.93	748.32	
CC(C)[C@@H]1NC(=O)[C@H](Cc2ccccc2)NC(=O)[C@H](Cc2ccc(O)cc2)NC(=O)CCSSC[C@@H](C(=O)N2CCC[C@H]2C(=O)N[C@@H](CCCN=C(N)N)C(=O)NCC(N)=O)NC(=O)[C@H](CC(N)=O)NC1=O ([Mpa]YFVNCPRG-NH2; disulfide 1-6)		0.3 nM (antagonist)	60 nM (antagonist)				
CC(C)[C@@H]1NC(=O)[C@H](Cc2ccccc2)NC(=O)[C@H](Cc2ccc(O)cc2)NC(=O)CCSSC[C@@H](C(=O)N2CCC[C@H]2C(=O)N[C@@H](CCCNC(=N)N)C(=O)NCC(N)=O)NC(=O)[C@H](CC(N)=O)NC1=O ([Mpa]YFVNCPRG-NH2; disulfide 1-6)					51	1150	
CC(C)[C@@H]1NC(=O)[C@H](Cc2ccccc2)NC(=O)[C@H](Cc2ccc(O)cc2)NC(=O)CCSSC[C@@H](C(=O)N2CCC[C@H]2C(=O)N[C@H](CCCNC(=N)N)C(=O)NCC(N)=O)NC(=O)[C@H](CC(N)=O)NC1=O ([Mpa]YFVNCP[dR]G-NH2; disulfide 1-6)		0.26 nM (antagonist)	316 nM (antagonist)		<0.01	1230	
NC(=O)CC[C@@H]1NC(=O)[C@H](Cc2ccccc2)NC(=O)[C@H](Cc2ccc(O)cc2)NC(=O)[C@@H](N)CSSC[C@@H](C(=O)N2CCC[C@H]2C(=O)N[C@@H](CCCN=C(N)N)C(=O)NCC(N)=O)NC(=O)[C@H](CC(N)=O)NC1=O [VASOPRESSIN]				1.17 nM (antagonist)			

Further lines, with some results ahead:

Activity [2] [U/mg]	Ki (Vasopressin V2 receptor)	Ki (Vasopressin V1a receptor)	Ki (Oxytocin receptor)	Structure (SMILES)	Activity (Rattus norvegicus [1]) [U/mg]	Activity (Rattus norvegicus [3]) [U/mg]	Activity (Rattus norvegicus [1]; filed as antagonist)
12				NCCCC[C@H](NC(=O)[C@@H]1CCCN1C(=O)[C@@H]1CSSCCC(=O)N[C@@H](Cc2ccc(O)cc2)C(=O)N[C@@H](Cc2ccccc2)C(=O)N[C@@H](CCC(N)=O)C(=O)N[C@@H](CC(N)=O)C(=O)N1)C(=O)NCC(N)=O	145	550	
15				NCCC[C@H](NC(=O)[C@@H]1CCCN1C(=O)[C@@H]1CSSCCC(=O)N[C@@H](Cc2ccc(O)cc2)C(=O)N[C@@H](Cc2ccccc2)C(=O)N[C@@H](CCC(N)=O)C(=O)N[C@@H](CC(N)=O)C(=O)N1)C(=O)NCC(N)=O	355	486	
0.67				CC(C)C[C@@H]1NC(=O)[C@H](Cc2ccccc2)NC(=O)[C@H](Cc2ccc(O)cc2)NC(=O)CCSSC[C@@H](C(=O)N2CCC[C@H]2C(=O)N[C@@H](CCCNC(=N)N)C(=O)NCC(N)=O)NC(=O)[C@H](CC(N)=O)NC1=O ([Mpa]YFLNCPRG-NH2; disulfide 1-6)	3.11	378	
0.15	3.8 nM (antagonist)	130 nM (antagonist)	125 nM (antagonist)	N=C(N)NCCC[C@@H]1NC(=O)[C@H](Cc2ccccc2)NC(=O)[C@H](Cc2ccc(O)cc2)NC(=O)CCSSC[C@@H](C(=O)N2CCC[C@H]2C(=O)N[C@@H](CCCCN)C(=O)NCC(N)=O)NC(=O)[C@H](CC(N)=O)NC1=O ([Mpa]YFRNCPKG-NH2; disulfide 1-6)	83	784	
	0.2 nM (antagonist)	12.9 nM (antagonist)		N=C(N)NCCC[C@@H]1NC(=O)[C@H](Cc2ccccc2)NC(=O)[C@H](Cc2ccc(O)cc2)NC(=O)CCSSC[C@@H](C(=O)N2CCC[C@H]2C(=O)N[C@@H](CCCN=C(N)N)C(=O)NCC(N)=O)NC(=O)[C@H](CC(N)=O)NC1=O ([Mpa]YFRNCPRG-NH2; disulfide 1-6)			
0.14	1.8 nM (antagonist)	25 nM (antagonist)	195 nM (antagonist)	N=C(N)NCCC[C@@H]1NC(=O)[C@H](Cc2ccccc2)NC(=O)[C@H](Cc2ccc(O)cc2)NC(=O)CCSSC[C@@H](C(=O)N2CCC[C@H]2C(=O)N[C@@H](CCN)C(=O)NCC(N)=O)NC(=O)[C@H](CC(N)=O)NC1=O ([Mpa]YFRNCP[Dab]G-NH2; disulfide 1-6)	190	431	
0.06	3.1 nM (antagonist)	67 nM (antagonist)	130 nM (antagonist)	N=C(N)NCCC[C@@H]1NC(=O)[C@H](Cc2ccccc2)NC(=O)[C@H](Cc2ccc(O)cc2)NC(=O)CCSSC[C@@H](C(=O)N2CCC[C@H]2C(=O)N[C@@H](CCCN)C(=O)NCC(N)=O)NC(=O)[C@H](CC(N)=O)NC1=O ([Mpa]YFRNCP[Orn]G-NH2; disulfide 1-6)	173	823	
	3.4 nM (antagonist)	900 nM (antagonist)		NCCC[C@@H]1NC(=O)[C@H](Cc2ccccc2)NC(=O)[C@H](Cc2ccc(O)cc2)NC(=O)CCSSC[C@@H](C(=O)N2CCC[C@H]2C(=O)N[C@@H](CCCN=C(N)N)C(=O)NCC(N)=O)NC(=O)[C@H](CC(N)=O)NC1=O ([Mpa]YF[Orn]NCPRG-NH2; disulfide 1-6)	1.54	260.32	
	0.8 nM (antagonist)			N=C(N)NCCC[C@@H](NC(=O)[C@@H]1CCCN1C(=O)[C@@H]1CSSCCC(=O)N[C@@H](Cc2ccc(O)cc2)C(=O)N[C@@H](Cc2ccccc2)C(=O)N[C@@H](CCC(N)=O)C(=O)N[C@@H](CC(N)=O)C(=O)N1)C(=O)NCC(N)=O (stereo in doubt; form 1) [DESMOPRESSIN]	346	1745	
	0.3 nM (antagonist)			N=C(N)NCCC[C@@H](NC(=O)[C@@H]1CCCN1C(=O)[C@@H]1CSSCCC(=O)N[C@@H](Cc2ccc(O)cc2)C(=O)N[C@@H](Cc2ccccc2)C(=O)N[C@@H](CCC(N)=O)C(=O)N[C@@H](CC(N)=O)C(=O)N1)C(=O)NCC(N)=O (stereo in doubt; form 2) [DESMOPRESSIN]	0.39	1200	
